Among the data in US20250368666A1, “INDAZOLE COMPOUNDS” (TYRA BIOSCIENCES, INC., priority 2022, published 2025) are Kd and IC50 values, retold here.

Molecules are shown by their SMILES. Structures can show the parent of a compound that is named as a salt. Where two headings read alike, the source gives them in different places.

One test has as its target T1, FGFR1 (Homo sapiens, UniProt P11362).
T1 construct: made in house; host or cells: E. coli (BL21-derived), T7 phage
The test can be described thus: Kinase binding assay (kinase-tagged T7 phage, affinity beads, qPCR), Kd. The following applies: read-out: FGFR1 (Kd nM). In a few lines:
(§1)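 Competition binding of compounds against kinase-tagged T7 phage captured on immobilised biotinylated ligand beads; bead-bound kinase quantified by qPCR of eluates. 11-point 3-fold dilution, 0.9% DMSO final; Kd from Hill fit with slope fixed at −1.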

A further test concerns the target T2, FGFR2 (Homo sapiens, UniProt P21802).
T2 construct: made in house; host or cells: E. coli (BL21-derived), T7 phage
The description is as above. The settings on record: read-out: FGFR2 (Kd nM). In a few lines: as §1

In another test the target is T3, FGFR3 (Homo sapiens, UniProt P22607).
T3 construct: made in house; host or cells: E. coli (BL21-derived), T7 phage
T3 sequence (P22607 23-806): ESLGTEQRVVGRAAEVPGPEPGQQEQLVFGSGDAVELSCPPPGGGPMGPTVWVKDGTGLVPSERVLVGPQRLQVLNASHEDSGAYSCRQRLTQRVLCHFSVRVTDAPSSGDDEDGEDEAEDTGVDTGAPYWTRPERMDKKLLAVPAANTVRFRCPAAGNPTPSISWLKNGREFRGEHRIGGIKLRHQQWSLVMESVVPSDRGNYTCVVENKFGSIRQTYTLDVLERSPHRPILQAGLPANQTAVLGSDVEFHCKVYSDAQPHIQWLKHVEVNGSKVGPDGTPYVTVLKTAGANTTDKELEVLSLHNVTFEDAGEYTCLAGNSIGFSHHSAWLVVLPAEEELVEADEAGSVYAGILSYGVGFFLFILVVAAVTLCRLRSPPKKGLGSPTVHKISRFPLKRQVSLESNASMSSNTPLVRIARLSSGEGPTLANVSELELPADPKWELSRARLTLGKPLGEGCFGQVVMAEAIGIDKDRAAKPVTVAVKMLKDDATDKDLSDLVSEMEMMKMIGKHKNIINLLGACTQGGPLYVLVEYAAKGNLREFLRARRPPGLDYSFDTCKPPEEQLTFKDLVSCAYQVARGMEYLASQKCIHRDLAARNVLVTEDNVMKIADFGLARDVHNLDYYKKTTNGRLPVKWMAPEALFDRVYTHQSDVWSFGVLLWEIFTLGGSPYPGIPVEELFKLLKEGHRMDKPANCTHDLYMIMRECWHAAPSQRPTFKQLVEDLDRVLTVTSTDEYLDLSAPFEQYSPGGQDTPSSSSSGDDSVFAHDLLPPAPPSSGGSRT
The description is as above. The settings on record: read-out: FGFR3 (Kd nM). In short, it runs like this:
as §1

In another test the target is T4, FGFR4 (Homo sapiens, UniProt P22455).
T4 construct: made in house; host or cells: E. coli (BL21-derived), T7 phage
T4 sequence (P22455 22-802): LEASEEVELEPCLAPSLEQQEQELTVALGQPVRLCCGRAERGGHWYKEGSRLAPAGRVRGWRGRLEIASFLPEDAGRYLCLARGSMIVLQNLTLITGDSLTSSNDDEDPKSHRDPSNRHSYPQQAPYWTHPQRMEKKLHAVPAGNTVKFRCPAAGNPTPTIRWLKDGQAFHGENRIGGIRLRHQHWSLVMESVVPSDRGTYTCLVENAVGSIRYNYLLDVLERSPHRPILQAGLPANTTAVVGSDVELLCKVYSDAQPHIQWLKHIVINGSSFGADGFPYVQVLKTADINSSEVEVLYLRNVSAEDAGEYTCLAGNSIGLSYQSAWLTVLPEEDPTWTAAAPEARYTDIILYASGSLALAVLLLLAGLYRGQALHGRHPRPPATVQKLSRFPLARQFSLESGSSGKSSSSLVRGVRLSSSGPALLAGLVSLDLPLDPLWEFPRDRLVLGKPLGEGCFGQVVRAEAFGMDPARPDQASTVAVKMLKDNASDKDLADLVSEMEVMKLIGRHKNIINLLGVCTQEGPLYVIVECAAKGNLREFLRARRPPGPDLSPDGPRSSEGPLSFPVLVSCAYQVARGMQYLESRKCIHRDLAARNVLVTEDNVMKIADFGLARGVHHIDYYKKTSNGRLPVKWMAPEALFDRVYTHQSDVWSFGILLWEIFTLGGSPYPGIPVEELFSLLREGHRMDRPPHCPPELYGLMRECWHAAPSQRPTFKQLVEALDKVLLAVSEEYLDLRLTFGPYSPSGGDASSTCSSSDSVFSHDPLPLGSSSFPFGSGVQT
Described as above. The following applies: read-out: FGFR4 (Kd nM). In a few lines:
as §1

The subject of test [1] is HuH7 cell line (FGF19 amplification). The test can be described thus: Cancer cell line cell viability assay (Cell Titer-Glo), 120 hr. It is filed as cell-based. The settings on record: Homo sapiens, Huh-7. The text has this:
Experimental Purpose: To detect the change of intracellular ATP by Cell Titer-Glo® and to evaluate the inhibitory effect of the compounds on cancer cell lines by determining the in vitro IC50 value of the compounds.
Cell Titer-Glo® 2.0 Luminescent cell viability assay reagent was purchased from Promega (Madison, WI). KG-1, KATO-III, and MDA-MB-453 cell lines were purchased from American Type Culture Collection (Manassas, VA). RT112/84 cell line was purchased from Millipore-Sigma (St. Louis, MO). HuH7 cells were purchased from Seikisui Xenotech (Kansas City, KS). RT112/84 and MDA-MB-453 cells were cultured in RPMI1640 media supplemented with 10% fetal bovine serum. KG-1 and KATO-III cell lines were cultured in IMDM media supplemented with 20% FBS. HuH7 cells were cultured in IMDM media supplemented with 10% FBS. Cultures were maintained at 37° C. in a humidified atmosphere of 5% CO2 and 95% air.
Cell Viability Assay Procedure: Cells were plated in 96-well clear bottom/white plates (Corning #3903) at a range of densities depending on the optimal assay window (5,000-20,000 cells/well in […] of media), incubated overnight. The next day, test compound DMSO stock solutions were made at 10 mM and […] final concentration. Compounds were then added to cells in a 9-dose, 4-fold dilution series starting at 3 μM with an HP 300e Digital Dispenser (each dose was applied in triplicate). DMSO was backfilled to each well up to 301 nL total volume of test compound+DMSO, and a total of 301 nL DMSO was added to a control/no test compound well in triplicate. The cells in cell culture plates were incubated with the compounds at 37° C. and 5% CO2 for 72 hours-120 hours depending on the cell line. Then 50 μl of Cell Titer Glo 2.0 reagent was added to each well of the cell culture plates. The contents were covered from light and mixed on an orbital shaker at room temperature for minimum of 10 min. Luminescence was recorded by a Clariostar Plus Microplate Reader (BMG Labtech, Cary, NC). Cells were assessed as a percentage of DMSO only treated control cells. Curves were plotted and IC50 values were calculated using the GraphPad Prism 9 program based on a sigmoidal dose-response equation (log (inhibitor) vs. response—Variable slope, 4-parameter).
A general note: Cellular ATP, detected with luciferase, serves as a proxy for viable cell number.

In the next test the target is T5, FGFR3 (V555M) (Homo sapiens, UniProt P22607, V555M).
T5 construct: made in house; host or cells: E. coli (BL21-derived), T7 phage
T5 sequence (P22607 23-806 V555M): as the sequence (P22607 23-806) above, with V533M counted along it
The test can be described thus: Kinase binding assay (kinase-tagged T7 phage, affinity beads, qPCR), Kd. The settings on record: V555M mutant; read-out: FGFR3 (V555M) (Kd nM). In short, it runs like this: as §1
(In general: Quantitative PCR measures a nucleic acid by following its amplification.)

Test [2] relates to KATO-III cell line (FGFR2 amplification). The test can be described thus: Cancer cell line cell viability assay (Cell Titer-Glo), 72 hr. It is filed as cell-based. The settings on record: Homo sapiens, KATO III. In short, it runs like this:
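Intracellular ATP was measured by Cell Titer-Glo 2.0 luminescence after cells were incubated with compound dilutions (top 3 μM, 4-fold, 9 doses). Values were expressed relative to DMSO-treated cells and IC50 was calculated from a variable-slope dose-response curve.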

Test [3] deals with KG-1 cell line (FGFR 1-fusion). The description is as above. Type of test: cell-based. The following applies: Homo sapiens, KG-1, KG-1 cell line (FGFR1-fusion). In a few lines:
(§2)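 Luminescent ATP read-out (Cell Titer-Glo 2.0) after compound exposure, normalised to DMSO-only wells. Dosing: 9 concentrations, 4-fold steps, top 3 μM, triplicates. IC50 derived by log(inhibitor) vs. response 4-parameter fit.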

Test [4] has as its system RT112/84 cell line (FGFR3-fusion). Described as above. Type of test: cell-based. The following applies: Homo sapiens, RT112/84, RT112/84 cell line (FGFR3-fusion). In short, it runs like this: as §2
Setting [5] is: kinase binding assay, 11-point 3-fold dilution series.

T1 sequence (P11362 22-822): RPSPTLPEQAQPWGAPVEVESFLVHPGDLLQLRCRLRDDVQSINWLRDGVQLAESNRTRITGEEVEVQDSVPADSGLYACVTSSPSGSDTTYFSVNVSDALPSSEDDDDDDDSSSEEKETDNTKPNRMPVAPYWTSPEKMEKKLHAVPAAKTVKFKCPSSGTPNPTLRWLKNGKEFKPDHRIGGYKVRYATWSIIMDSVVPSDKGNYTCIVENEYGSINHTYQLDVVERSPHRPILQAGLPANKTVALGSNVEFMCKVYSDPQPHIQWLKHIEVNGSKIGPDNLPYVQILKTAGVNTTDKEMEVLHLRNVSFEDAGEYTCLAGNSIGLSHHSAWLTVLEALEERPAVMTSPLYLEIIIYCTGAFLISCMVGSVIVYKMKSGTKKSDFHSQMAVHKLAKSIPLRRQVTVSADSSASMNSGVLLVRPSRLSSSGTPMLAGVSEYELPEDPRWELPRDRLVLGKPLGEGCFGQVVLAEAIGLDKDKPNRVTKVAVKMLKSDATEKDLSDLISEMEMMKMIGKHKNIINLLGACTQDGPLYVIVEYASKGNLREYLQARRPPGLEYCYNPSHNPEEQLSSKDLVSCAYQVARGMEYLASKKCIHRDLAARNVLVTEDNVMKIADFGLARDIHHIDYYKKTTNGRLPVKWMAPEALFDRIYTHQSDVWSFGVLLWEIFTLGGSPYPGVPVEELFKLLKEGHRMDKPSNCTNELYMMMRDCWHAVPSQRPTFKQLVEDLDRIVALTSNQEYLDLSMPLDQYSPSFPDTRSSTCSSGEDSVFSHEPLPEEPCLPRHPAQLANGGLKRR
T2 sequence (P21802 22-821): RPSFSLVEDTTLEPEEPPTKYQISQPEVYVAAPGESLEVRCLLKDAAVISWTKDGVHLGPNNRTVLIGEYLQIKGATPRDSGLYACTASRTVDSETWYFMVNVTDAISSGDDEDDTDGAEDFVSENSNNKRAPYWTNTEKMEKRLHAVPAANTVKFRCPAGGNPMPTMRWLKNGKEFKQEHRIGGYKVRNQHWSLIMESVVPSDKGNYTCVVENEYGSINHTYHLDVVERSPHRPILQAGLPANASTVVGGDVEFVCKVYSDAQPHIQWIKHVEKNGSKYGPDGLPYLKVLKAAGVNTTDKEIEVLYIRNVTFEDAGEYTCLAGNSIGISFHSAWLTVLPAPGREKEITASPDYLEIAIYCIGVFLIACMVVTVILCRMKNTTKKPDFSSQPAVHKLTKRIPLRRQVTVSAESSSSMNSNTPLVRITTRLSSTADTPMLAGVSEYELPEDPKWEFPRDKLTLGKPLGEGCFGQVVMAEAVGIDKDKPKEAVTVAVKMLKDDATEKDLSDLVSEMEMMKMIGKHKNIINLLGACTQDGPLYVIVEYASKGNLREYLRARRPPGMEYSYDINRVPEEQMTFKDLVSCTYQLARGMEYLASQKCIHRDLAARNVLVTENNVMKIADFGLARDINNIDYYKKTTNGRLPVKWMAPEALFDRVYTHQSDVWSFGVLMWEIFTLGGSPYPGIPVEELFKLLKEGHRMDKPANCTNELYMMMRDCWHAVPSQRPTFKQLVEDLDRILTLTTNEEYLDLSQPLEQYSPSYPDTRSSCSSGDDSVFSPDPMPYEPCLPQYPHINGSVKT

Broadly, the Kd is the concentration at which binding is half-saturated. For orientation: IC50 means the concentration needed to halve the response being measured. A low value points to greater potency in that assay. As for `COc1cc2[nH]nc(-c3cnc(N4CC(CC#N)(NCC5CC5)C4)c(C#N)c3)c2cc1O[C@H](C)c1c(Cl)cnc(C)c1Cl` [Example 350, (R)-2-(3-(Cyanomethyl)-3-((cyclopropyl-methyl)ami-no)azetidin-1-yl)-5-(5-(1-(3,5-dichloro-2-methylpyridin-4-yl)ethoxy)-6-methoxy-1H-indazol-3-yl)nicotinonitrile], the dissociation constant (Kd) on FGFR1 was 50 to 300 nM; on FGFR2 it was 1 to 50 nM; at FGFR3 it was 1 to 50 nM; on FGFR4 it was 1 to 50 nM. The 50% inhibitory concentration (IC50) in test [1] fell in the range of 0.1 to 50 nM.
Take `COc1cc2[nH]nc(-c3cc(C#N)c(N4CC(C)(NCC(C)C)C4)nn3)c2cc1O[C@H](C)c1c(Cl)cncc1Cl` [Example 342, (R)-6-(5-(1-(3,5-dichloropyridin-4-yl)ethoxy)-6-methoxy-1H-indazol-3-yl)-3-(3-(isobutylamino)-3-methylazetidin-1-yl)pyridazine-4-carbonitrile]: the dissociation constant Kd on FGFR1, at FGFR2, on FGFR3 and on FGFR4 was 1 to 50 nM each time. The molecule also gave an IC50 in test [1] of 50 to 200 nM.
As to `COc1cc2[nH]nc(-c3cc(C#N)c(N4CC(C)(NCC5CC5)C4)nn3)c2cc1O[C@H](C)c1c(Cl)cncc1Cl` [Example 347, (R)-3-(3-((cyclopropyl-methyl)amino)-3-methylazetidin-1-yl)-6-(5-(1-(3,5-dichloropyridin-4-yl)ethoxy)-6-methoxy-1H-indazol-3-yl)pyridazine-4-carbonitrile], the Kd at FGFR1, on FGFR2, on FGFR3 and on FGFR4 was 1 to 50 nM in each case. The molecule further displayed a 50% inhibitory concentration (IC50) in test [1] of 0.1 to 50 nM.
`COc1cc2[nH]nc(-c3cc(C#N)c(N4CC(C)(N(C)C)C4)nn3)c2cc1O[C@H](C)c1c(Cl)cncc1Cl` [Example 349, (R)-6-(5-(1-(3,5-dichloropyridin-4-yl)ethoxy)-6-methoxy-1H-indazol-3-yl)-3-(3-(dimethylamino)-3-methylazetidin-1-yl)pyridazine-4-carbonitrile]: the equilibrium dissociation constant (Kd) on FGFR1, on FGFR2, at FGFR3 and at FGFR4 was 1 to 50 nM throughout. This molecule also registered a half-maximal inhibitory concentration (IC50) in test [1] of 0.1 to 50 nM.
As to `CCC1(NCC2CC2)CN(c2ncc(-c3n[nH]c4cc(OC)c(O[C@H](C)c5c(Cl)cncc5Cl)cc34)cc2C#N)C1` [Example 348, (R)-2-(3-((Cyclopropylmethyl)amino)-3-ethylazetidin-1-yl)-5-(5-(1-(3,5-dichloropyridin-4-yl)ethoxy)-6-methoxy-1H-indazol-3-yl)nicotinonitrile dihydrochloride], the Kd at FGFR1, on FGFR2, on FGFR3 and at FGFR4 was 1 to 50 nM each time. Further, in test [1], the IC50 fell in the range of 0.1 to 50 nM.
On to `COc1cc2[nH]nc(-c3cnc(N4CC[C@](C)(NCC5CC5)C4)c(C#N)c3)c2cc1O[C@H](C)c1c(Cl)cncc1Cl` [Example 410, 2-((S)-3-((cyclopropyl-methyl)-amino)-3-methylpyrrolidin-1-yl)-5-(5-((R)-1-(3,5-dichloropyridin-4-yl)ethoxy)-6-methoxy-1H-indazol-3-yl)nicotinonitrile], for which the dissociation constant Kd at FGFR1 (setting [5]), on FGFR2 (setting [5]), at FGFR3 (setting [5]) and at FGFR4 (setting [5]) was 1 to 50 nM each time. Further, in test [1], the IC50 lay in the range of 0.1 to 50 nM.
Take `COc1cc2[nH]nc(-c3cnc(N4CC(C)(O)C4)c(C#N)c3)c2cc1O[C@H](C)c1c(Cl)cncc1Cl` [Example 370, 5-[5-[(1R)-1-(3,5-dichloro-4-pyridyl)ethoxy]-6-methoxy-1H-indazol-3-yl]-2-(3-hydroxy-3-methyl-azetidin-1-yl)pyridine-3-carbonitrile]: the Kd on FGFR1, at FGFR2, on FGFR3 and on FGFR4 was 1 to 50 nM throughout. Also, in test [1], the half-inhibitory concentration (IC50) lay within 0.1 to 50 nM.
In turn, `COc1cc2[nH]nc(-c3cnc(N4CCC(C)(NCC5CC5)CC4)c(C#N)c3)c2cc1O[C@H](C)c1c(Cl)cncc1Cl` [Example 411, (R)-2-(4-((cyclo-propylmethyl)amino)-4-methylpiperidin-1-yl)-5-(5-(1-(3,5-dichloropyridin-4-yl)ethoxy)-6-methoxy-1H-indazol-3-yl)nicotinonitrile] gave a half-maximal inhibitory concentration (IC50) in [1] of 0.1 to 50 nM.
As for `C[C@@H](Oc1ccc2[nH]nc(-c3ccc(N4CC(C)(NCC(C)(C)O)C4)nc3)c2c1)c1c(Cl)cncc1Cl` [Example 115, (R)-1-((1-(5-(5-(1-(3,5-dichloropyridin-4-yl)ethoxy)-1H-indazol-3-yl)pyridin-2-yl)-3-methylazetidin-3-yl)amino)-2-methylpropan-2-ol], the dissociation constant Kd on FGFR1, on FGFR2, at FGFR3, on FGFR3 (V555M) and at FGFR4 was 1 to 50 nM in each case. Further, the IC50 in test [2], in [3] and in test [4] was 0.1 to 50 nM throughout.
Regarding `C[C@@H](Oc1cc2c(-c3ccc(N4CC(C)(CP(C)(C)=O)C4)nc3)n[nH]c2cc1F)c1c(Cl)cncc1Cl` [Example 67, (R)-((1-(5-(5-(1-(3,5-dichloropyridin-4-yl)ethoxy)-6-fluoro-1H-indazol-3-yl)pyridin-2-yl)-3-methylazetidin-3-yl)methyl)dimethylphos-phine oxide], the equilibrium dissociation constant (Kd) on FGFR1, at FGFR2, on FGFR3, on FGFR3 (V555M) and at FGFR4 was 1 to 50 nM each time. Further, the values for the IC50 in [2], in test [3] and in test [4] were 0.1 to 50 nM, 200 to 1000 nM and 0.1 to 50 nM, respectively.
For the molecule `C[C@@H](Oc1ccc2[nH]nc(-c3cnc(N4CC(C)(N5CC6CC(C5)O6)C4)c(F)c3)c2c1)c1c(Cl)cncc1Cl` [Example 217, 3-(1-(5-(5-((R)-1-(3,5-dichloropyridin-4-yl)ethoxy)-1H-indazol-3-yl)-3-fluoropyridin-2-yl)-3-methylazetidin-3-yl)-6-oxa-3-aza-bicyclo[3.1.1]hep-tane], the equilibrium dissociation constant (Kd) at FGFR1, on FGFR2, at FGFR3, on FGFR3 (V555M) and at FGFR4 was 1 to 50 nM in each case. Also, the IC50 in test [2] lay within 0.1 to 50 nM; in test [3], 50 to 200 nM; in test [4] it was 0.1 to 50 nM.
Turning to `C[C@@H](Oc1ccc2[nH]nc(-c3ccc(N4CC(C)(N5CCC5)C4)nc3)c2c1)c1c(Cl)cncc1Cl` [Example 116, 3-[6-[3-(azetidin-1-yl)-3-methyl-azetidin-1-yl]-3-pyridyl]-5-[(1R)-1-(3,5-dichloro-4-pyridyl)ethoxy]-1H-indazole], the Kd on FGFR1, at FGFR2, on FGFR3, on FGFR3 (V555M) and on FGFR4 was 1 to 50 nM throughout. For the same molecule, the half-maximal inhibitory concentration (IC50) in test [2], in [3] and in [4] was 0.1 to 50 nM in each case.
